Experimental data reported in ChEMBL document CHEMBL5154818, “Development of oxoisoaporphine derivatives with topoisomerase I inhibition and reversal of multidrug resistance in breast cancer MCF-7/ADR cells” (Eur J Med Chem, 2022).

These molecules were tested on HepG2 (assay: Antiproliferative activity against human HepG2 cells after 48 hrs by MTT assay). Conditions: HepG2, 48 h.
Format: functional, cell-based

Question: Which IC50 does the source give for `CN1CCN(CCCCOc2ccc3c4c(nccc24)-c2ccccc2C3=O)CC1` here?
Answer: The IC50 was 11.9 µM.

Question: `O=C1c2ccccc2-c2nccc3c(OCCCn4cnc([N+](=O)[O-])c4)ccc1c23` was tested. Which IC50 did it give?
Answer: The IC50 was 10.5 µM.

Question: Which IC50 does the source give for `O=C1c2ccccc2-c2nccc3c(OCCCn4cnc(Br)c4)ccc1c23` here?
Answer: Its IC50 is 8.12 µM.

Question: `N#Cc1ncn(CCCCCOc2ccc3c4c(nccc24)-c2ccccc2C3=O)c1C#N` was tested. Which IC50 did it give?
Answer: Its IC50 is 7.29 µM.

Question: With `CC1CCCCN1CCCOc1ccc2c3c(nccc13)-c1ccccc1C2=O` (stereo not given) as the molecule, how does the IC50 read?
Answer: Its IC50 is 6.56 µM.

Question: With `O=C1c2ccccc2-c2nccc3c(OCCCCCn4ccnc4[N+](=O)[O-])ccc1c23` as the molecule, how does the IC50 read?
Answer: The IC50 was 8.13 µM.

Question: For `O=C1c2ccccc2-c2nccc3c(OCCCCn4ccnc4[N+](=O)[O-])ccc1c23`, which IC50 is on record?
Answer: Its IC50 is 10.9 µM.

Question: With `Cc1cn(CCCCOc2ccc3c4c(nccc24)-c2ccccc2C3=O)cn1` as the molecule, how does the IC50 read?
Answer: The IC50 was 11.1 µM.

Question: For `O=C1c2ccccc2-c2nccc3c(OCCCn4ccnc4[N+](=O)[O-])ccc1c23`, which IC50 is on record?
Answer: The IC50 was 13.1 µM.

Question: With `O=C1c2ccccc2-c2nccc3c(OCCCN4CCOCC4)ccc1c23` as the molecule, how does the IC50 read?
Answer: The IC50 was 10.3 µM.

These molecules were tested on MDA-MB-231 (assay: Antiproliferative activity against human MDA-MB-231 cells after 48 hrs by MTT assay). Conditions: MDA-MB-231, 48 h.
Format: functional, cell-based

Question: For `CN1CCN(CCCCOc2ccc3c4c(nccc24)-c2ccccc2C3=O)CC1`, which IC50 is on record?
Answer: The IC50 was 11.1 µM.

Question: Which IC50 does the source give for `O=C1c2ccccc2-c2nccc3c(OCCCn4cnc([N+](=O)[O-])c4)ccc1c23` here?
Answer: Its IC50 is 8.29 µM.

Question: `O=C1c2ccccc2-c2nccc3c(OCCCn4cnc(Br)c4)ccc1c23` was tested. Which IC50 did it give?
Answer: Its IC50 is 8.61 µM.

Question: How did the IC50 turn out when `N#Cc1ncn(CCCCCOc2ccc3c4c(nccc24)-c2ccccc2C3=O)c1C#N` was run?
Answer: The IC50 was 7.39 µM.

Question: `CC1CCCCN1CCCOc1ccc2c3c(nccc13)-c1ccccc1C2=O` (stereo not given) was tested. Which IC50 did it give?
Answer: Its IC50 is 7.94 µM.

Question: How did the IC50 turn out when `O=C1c2ccccc2-c2nccc3c(OCCCCCn4ccnc4[N+](=O)[O-])ccc1c23` was run?
Answer: Its IC50 is 7.18 µM.

Question: `O=C1c2ccccc2-c2nccc3c(OCCCCn4ccnc4[N+](=O)[O-])ccc1c23` was tested. Which IC50 did it give?
Answer: Its IC50 is 10 µM.

Question: Which IC50 does the source give for `Cc1cn(CCCCOc2ccc3c4c(nccc24)-c2ccccc2C3=O)cn1` here?
Answer: Its IC50 is 9.47 µM.

Question: For `O=C1c2ccccc2-c2nccc3c(OCCCn4ccnc4[N+](=O)[O-])ccc1c23`, which IC50 is on record?
Answer: The IC50 was 12 µM.

Question: Which IC50 does the source give for `O=C1c2ccccc2-c2nccc3c(OCCCN4CCOCC4)ccc1c23` here?
Answer: The IC50 was 9.52 µM.

These molecules were tested on NCI/ADR-RES (assay: Antiproliferative activity against human MCF7/ADR cells after 48 hrs by MTT assay). Conditions: not given.
Format: functional, cell-based

Question: With `CN1CCN(CCCCOc2ccc3c4c(nccc24)-c2ccccc2C3=O)CC1` as the molecule, how does the IC50 read?
Answer: Its IC50 is 13.2 µM.

Question: For `O=C1c2ccccc2-c2nccc3c(OCCCn4cnc([N+](=O)[O-])c4)ccc1c23`, which IC50 is on record?
Answer: The IC50 was 18.4 µM.

Question: `O=C1c2ccccc2-c2nccc3c(OCCCn4cnc(Br)c4)ccc1c23` was tested. Which IC50 did it give?
Answer: The IC50 was 11.2 µM.

Question: With `N#Cc1ncn(CCCCCOc2ccc3c4c(nccc24)-c2ccccc2C3=O)c1C#N` as the molecule, how does the IC50 read?
Answer: Its IC50 is 10.1 µM.

Question: `CC1CCCCN1CCCOc1ccc2c3c(nccc13)-c1ccccc1C2=O` (stereo not given) was tested. Which IC50 did it give?
Answer: Its IC50 is 16.2 µM.

Question: For `O=C1c2ccccc2-c2nccc3c(OCCCCCn4ccnc4[N+](=O)[O-])ccc1c23`, which IC50 is on record?
Answer: Its IC50 is 10.2 µM.

Question: Which IC50 does the source give for `O=C1c2ccccc2-c2nccc3c(OCCCCn4ccnc4[N+](=O)[O-])ccc1c23` here?
Answer: Its IC50 is 13.5 µM.

Question: With `Cc1cn(CCCCOc2ccc3c4c(nccc24)-c2ccccc2C3=O)cn1` as the molecule, how does the IC50 read?
Answer: The IC50 was 13.6 µM.

Question: Which IC50 does the source give for `O=C1c2ccccc2-c2nccc3c(OCCCn4ccnc4[N+](=O)[O-])ccc1c23` here?
Answer: Its IC50 is 16.7 µM.

Question: Which IC50 does the source give for `O=C1c2ccccc2-c2nccc3c(OCCCN4CCOCC4)ccc1c23` here?
Answer: Its IC50 is 14.6 µM.

These molecules were tested on L02 (assay: Antiproliferative activity against human L02 cells after 48 hrs by MTT assay). Conditions: L02, 48 h.
Format: functional, cell-based

Question: For `COc1cccc2c1C(=O)c1c(O)c3c(c(O)c1C2=O)C[C@@](O)(C(=O)CO)C[C@@H]3O[C@H]1C[C@H](N)[C@H](O)[C@H](C)O1` [DOXORUBICIN], which IC50 is on record?
Answer: The IC50 was 0.18 µM.

Question: `CN1CCN(CCCCOc2ccc3c4c(nccc24)-c2ccccc2C3=O)CC1` was tested. Which IC50 did it give?
Answer: The IC50 was > 50 µM.

Question: How did the IC50 turn out when `O=C1c2ccccc2-c2nccc3c(OCCCn4cnc([N+](=O)[O-])c4)ccc1c23` was run?
Answer: Its IC50 is 21.1 µM.

Question: With `O=C1c2ccccc2-c2nccc3c(OCCCn4cnc(Br)c4)ccc1c23` as the molecule, how does the IC50 read?
Answer: The IC50 was 36.8 µM.

Question: How did the IC50 turn out when `N#Cc1ncn(CCCCCOc2ccc3c4c(nccc24)-c2ccccc2C3=O)c1C#N` was run?
Answer: The IC50 was 31.1 µM.

Question: Which IC50 does the source give for `CC1CCCCN1CCCOc1ccc2c3c(nccc13)-c1ccccc1C2=O` (stereo not given) here?
Answer: The IC50 was 19.5 µM.

Question: Which IC50 does the source give for `O=C1c2ccccc2-c2nccc3c(OCCCCCn4ccnc4[N+](=O)[O-])ccc1c23` here?
Answer: The IC50 was 30.2 µM.

Question: For `O=C1c2ccccc2-c2nccc3c(OCCCCn4ccnc4[N+](=O)[O-])ccc1c23`, which IC50 is on record?
Answer: The IC50 was 37.3 µM.

Question: With `Cc1cn(CCCCOc2ccc3c4c(nccc24)-c2ccccc2C3=O)cn1` as the molecule, how does the IC50 read?
Answer: The IC50 was 28.2 µM.

Question: How did the IC50 turn out when `O=C1c2ccccc2-c2nccc3c(OCCCn4ccnc4[N+](=O)[O-])ccc1c23` was run?
Answer: The IC50 was 39.6 µM.

Question: For `O=C1c2ccccc2-c2nccc3c(OCCCN4CCOCC4)ccc1c23`, which IC50 is on record?
Answer: The IC50 was 32.4 µM.

These molecules were tested on NCI/ADR-RES (assay: Reversal of multidrug resistant activity in human MCF7/ADR cells after 48 hrs by MTT assay). Conditions: not given.
Format: functional, cell-based

Question: `COc1ccc(CCN(C)CCCC(C#N)(c2ccc(OC)c(OC)c2)C(C)C)cc1OC` (stereo not given) was tested. Which IC50 did it give?
Answer: The IC50 was 2.83 µM.

Question: With `CN1CCN(CCCCOc2ccc3c4c(nccc24)-c2ccccc2C3=O)CC1` as the molecule, how does the IC50 read?
Answer: Its IC50 is 1.8 µM.

Question: How did the IC50 turn out when `CC1CCCCN1CCCOc1ccc2c3c(nccc13)-c1ccccc1C2=O` (stereo not given) was run?
Answer: The IC50 was 0.39 µM.

Question: Which IC50 does the source give for `O=C1c2ccccc2-c2nccc3c(OCCCN4CCOCC4)ccc1c23` here?
Answer: The IC50 was 1.81 µM.

These molecules were tested on Calf thymus DNA (assay: Binding affinity to calf thymus DNA assessed as red shift in absorption spectra at 20 uM by UV-vis absorption spectroscopy). Conditions: Bos taurus.
Format: nucleic-acid assay

Question: With `CC1CCCCN1CCCOc1ccc2c3c(nccc13)-c1ccccc1C2=O` (stereo not given) as the molecule, how does the OD read?
Answer: Its OD is 2 nm.

The molecules below were run on MCF7 (assay: Antiproliferative activity against human MCF7 cells after 48 hrs by MTT assay). Conditions: MCF7, 48 h.
Format: functional, cell-based

Question: Which IC50 does the source give for `CN1CCN(CCCCOc2ccc3c4c(nccc24)-c2ccccc2C3=O)CC1` here?
Answer: Its IC50 is 8.67 µM.

Question: For `O=C1c2ccccc2-c2nccc3c(OCCCn4cnc([N+](=O)[O-])c4)ccc1c23`, which IC50 is on record?
Answer: The IC50 was 9.03 µM.

Question: `O=C1c2ccccc2-c2nccc3c(OCCCn4cnc(Br)c4)ccc1c23` was tested. Which IC50 did it give?
Answer: Its IC50 is 6.09 µM.

Question: `N#Cc1ncn(CCCCCOc2ccc3c4c(nccc24)-c2ccccc2C3=O)c1C#N` was tested. Which IC50 did it give?
Answer: Its IC50 is 7.65 µM.

Question: With `CC1CCCCN1CCCOc1ccc2c3c(nccc13)-c1ccccc1C2=O` (stereo not given) as the molecule, how does the IC50 read?
Answer: The IC50 was 8.32 µM.

Question: With `O=C1c2ccccc2-c2nccc3c(OCCCCCn4ccnc4[N+](=O)[O-])ccc1c23` as the molecule, how does the IC50 read?
Answer: Its IC50 is 9.29 µM.

Question: With `O=C1c2ccccc2-c2nccc3c(OCCCCn4ccnc4[N+](=O)[O-])ccc1c23` as the molecule, how does the IC50 read?
Answer: Its IC50 is 9.78 µM.

Question: `Cc1cn(CCCCOc2ccc3c4c(nccc24)-c2ccccc2C3=O)cn1` was tested. Which IC50 did it give?
Answer: Its IC50 is 9.42 µM.

Question: For `O=C1c2ccccc2-c2nccc3c(OCCCn4ccnc4[N+](=O)[O-])ccc1c23`, which IC50 is on record?
Answer: Its IC50 is 10.1 µM.

Question: How did the IC50 turn out when `O=C1c2ccccc2-c2nccc3c(OCCCN4CCOCC4)ccc1c23` was run?
Answer: The IC50 was 7.58 µM.

Each molecule was assayed on Calf thymus DNA (assay: Binding affinity to calf thymus DNA assessed as hypochromicity at 20 uM measured by UV-vis absorption spectroscopy). Conditions: Bos taurus.
Format: nucleic-acid assay

Question: For `CC1CCCCN1CCCOc1ccc2c3c(nccc13)-c1ccccc1C2=O` (stereo not given), which Activity is on record?
Answer: Its Activity is 28.5%.

The molecules below were run on A549 (assay: Antiproliferative activity against human A549 cells after 48 hrs by MTT assay). Conditions: A549, 48 h.
Format: functional, cell-based

Question: Which IC50 does the source give for `CN1CCN(CCCCOc2ccc3c4c(nccc24)-c2ccccc2C3=O)CC1` here?
Answer: The IC50 was 11.1 µM.

Question: Which IC50 does the source give for `O=C1c2ccccc2-c2nccc3c(OCCCn4cnc([N+](=O)[O-])c4)ccc1c23` here?
Answer: The IC50 was 9.73 µM.

Question: For `O=C1c2ccccc2-c2nccc3c(OCCCn4cnc(Br)c4)ccc1c23`, which IC50 is on record?
Answer: The IC50 was 8.95 µM.

Question: How did the IC50 turn out when `N#Cc1ncn(CCCCCOc2ccc3c4c(nccc24)-c2ccccc2C3=O)c1C#N` was run?
Answer: Its IC50 is 5.88 µM.

Question: For `CC1CCCCN1CCCOc1ccc2c3c(nccc13)-c1ccccc1C2=O` (stereo not given), which IC50 is on record?
Answer: Its IC50 is 7.48 µM.

Question: How did the IC50 turn out when `O=C1c2ccccc2-c2nccc3c(OCCCCCn4ccnc4[N+](=O)[O-])ccc1c23` was run?
Answer: Its IC50 is 6.09 µM.

Question: `O=C1c2ccccc2-c2nccc3c(OCCCCn4ccnc4[N+](=O)[O-])ccc1c23` was tested. Which IC50 did it give?
Answer: Its IC50 is 10.6 µM.

Question: Which IC50 does the source give for `Cc1cn(CCCCOc2ccc3c4c(nccc24)-c2ccccc2C3=O)cn1` here?
Answer: Its IC50 is 9.63 µM.

Question: Which IC50 does the source give for `O=C1c2ccccc2-c2nccc3c(OCCCn4ccnc4[N+](=O)[O-])ccc1c23` here?
Answer: The IC50 was 10.3 µM.

Question: How did the IC50 turn out when `O=C1c2ccccc2-c2nccc3c(OCCCN4CCOCC4)ccc1c23` was run?
Answer: Its IC50 is 9.23 µM.

These molecules were tested on MCF7 (assay: Antiproliferative activity against human MCF7 cells assessed as growth inhibition at 3 uM after 48 hrs by MTT assay relative to control). Conditions: read-out: GI.
Format: functional

Question: With `CN1CCN(CCCCOc2ccc3c4c(nccc24)-c2ccccc2C3=O)CC1` as the molecule, how does the inhibition of growth at 3 µM read?
Answer: Its inhibition of growth at 3 µM is 6.68%.

Question: Which inhibition of growth at 3 µM does the source give for `CC1CCCCN1CCCOc1ccc2c3c(nccc13)-c1ccccc1C2=O` (stereo not given) here?
Answer: The inhibition of growth at 3 µM was 19.7%.

Question: For `O=C1c2ccccc2-c2nccc3c(OCCCN4CCOCC4)ccc1c23`, which inhibition of growth at 3 µM is on record?
Answer: The inhibition of growth at 3 µM was 3.73%.
